Legend:
[1] = tested on: Trichoderma brevicompactum; assay: Potato field trial: beneficial fungi in soil (ITS sequencing, differential abundance); type: in vivo, potato (Solanum tuberculosum L.); settings: location B; 200 and 250 gai/ha
Description: In this experiment, assuming that biodiversity can be measured by the taxonomic richness and abundance of each taxon, the differences between treatments are determined and their effect on populations and beneficial species over time is verified. This leads to testing two hypotheses. Firstly, there is an impact of cyclobutrifluram applications on microbial diversity. Secondly, the use of cyclobutrifluram improves beneficial microbial diversity over time. These hypotheses were tested in two potato farms in the USA.
The experiment was carried out in two potato (Solanum tuberculosum L.) fields located in two test locations in Louisiana, USA, described as locations A and B in Table 2. […]
As set out above, to detect microbial community modifications in the soil microbiome associated with the cyclobutrifluram treatment, PCR amplification and successive high-throughput sequencing of bacterial and fungal taxonomical marker genes (the small-subunit ribosomal RNA gene (16S) and the ribosomal internal transcribed spacers (ITS) respectively) were performed on plant-associated soil samples. An exploratory data analysis was conducted to describe the microbial biodiversity and the behaviour of the percentage of the abundance of species under the evaluated factors. […]

[2] = tested on: soil fungal community; assay: Plant associated soil microbiome: fungal community by ITS amplicon sequencing; type: in vivo, tomato plants
Source text: Differential abundance of fungal taxa after 97 days in treated soil, as detected by PCR amplification and successive high-throughput sequencing of fungal taxonomical marker genes (the small-subunit ribosomal RNA gene (16S) and the ribosomal internal transcribed spacers (ITS) respectively) on plant-associated soil samples.
To detect microbial community modifications in the soil microbiome associated with the cyclobutrifluram treatment against root knot nematodes, PCR amplification and successive high-throughput sequencing of bacterial and fungal taxonomical marker genes (the small-subunit ribosomal RNA gene (16S) and the ribosomal internal transcribed spacers (ITS) respectively) were performed on plant-associated soil samples.
Comparison of the fungal community of Control and RKN-Cyclobutrifluram plant-associated 5 soil samples highlighted a microbiome shift mainly characterised by the reduction of the plant-pathogen Fusarium, an ubiquitous pathogenic fungus that constitutes an abundant taxon in control soil. Fusarium relative abundance results reduced from 17.8% in control samples to 7.5% after cyclobutrifluram treatment. Table 1b reports fungal genera detected by ITS gene amplicon sequencing with taxonomy assignment at genus level; relative abundance in Control and Cyclobutrifluram treated samples statistically significative (Deseq2, p=0.1), the relative abundance variation.

[3] = tested on: arbuscular mycorrhizae fungi; assay: Mycorrhization in soybean roots after seed treatment; type: in vivo
Description: Soybeans of variety Toliman were treated with 0.15 mg ai/seed of cyclobutrifluram and analogues, and planted in 1.5 L pots of 0-3 mm sieved soil. The seeds were inoculated with Bradyrhizobium japonicum using a commercially available product for soybeans.
In a first series, for each active ingredient tested, 15 replicate pots were sowed. In each pot, 3 seeds were sowed. After germination, 2 seedling was removed from each pot to a final number of 1 plant per pot. Each pot was inoculated with a small amount of a mycorrhizal inoculant (Blend A, commercially available from Symbiom, Czech Republic). The plants were grown in a greenhouse for 81 days under the following conditions: Humidity at 45-64%, Temperature of 22° C. to 24° C., in a 16/8 hour day/night cycle. In a further test series, Soybeans seeds treated as outlined above were then planted in 1 Lpots of 0-3 mm sieved soil. For each active ingredient, 8 replicate pots were sowed, whereby in each pot, 3 seeds were sowed. After germination, 2 seedlings were removed from each pot to a final number of 1 plant per pot.
The plants were then grown in a growth chamber for 42 days with the following conditions: Temperature of 20° C. and with a 12/12 hour day/night.
After harvest, the percent mycorrhization was quantified using the methods of McGonigle et al. (T. P. McGONIGLE, M. H. MILLER and D. G. EVANS et al., “A new method which gives an objective measure of colonization of roots by vesicular-arbuscular mycorrhizal fungi”. New Phytol. Vol. 115 (3): 495-501.).

[4] = Cyclobutrifluram treated plant-associated soil, RKN

O=C(N[C@@H]1CC[C@@H]1c1ccc(Cl)cc1Cl)c1cccnc1C(F)(F)F (racemic) [Cyclobutrifluram, cyclobutrifluram]
Trichoderma brevicompactum relative abundance [1]: significant enhancement | Relative abundance, Acremonium [2, 4]: 0.214% | Relative abundance, Arthrinium [2, 4]: 0.398% | Relative abundance, Candida [2, 4]: 0.839% | Relative abundance, Chrysosporium [2, 4]: 17.327% | Relative abundance, Cladosporium [2, 4]: 3.983% | Relative abundance, Conostachys [2, 4]: 0.797% | Relative abundance, Eleutherascus [2, 4]: 0.217% | Relative abundance, Endoconidiophora [2, 4]: 5.102% | Relative abundance, Fusarium [2, 4]: 7.544% | Relative abundance, Humicola [2, 4]: 0.000% | Relative abundance, Lectera [2, 4]: 1.767% | Relative abundance, Monocillium [2, 4]: 0.083% | Relative abundance, Mortierella [2, 4]: 2.111% | Relative abundance, Mycosphaerella [2, 4]: 1.672% | Relative abundance, Oidiodendron [2, 4]: 0.292% | Relative abundance, Paraphoma [2, 4]: 0.043% | Relative abundance, Phialemonium [2, 4]: 0.357% | Relative abundance, Pseudaleuria [2, 4]: 1.936% | Relative abundance, Pseudogymnoascus [2, 4]: 0.870% | Relative abundance, Saitozyma [2, 4]: 0.907% | Relative abundance, Schwanniomyces [2, 4]: 0.017% | Relative abundance, Sebacina [2, 4]: 0.077% | Relative abundance, Solicoccozyma [2, 4]: 0.407% | Relative abundance, Tetracladium [2, 4]: 0.318% | Relative abundance, Verticillium [2, 4]: 0.571% | Relative abundance, Fusarium ([2]; Cyclobutrifluram treated plant-associated soil, RKN, listed as cyclobutrifluram): 7.5% | relative abundance variation vs Control, Acremonium ([2]; Deseq2, p=0.1): +0.056% | relative abundance variation vs Control, Arthrinium ([2]; Deseq2, p=0.1): +0.293% | relative abundance variation vs Control, Candida ([2]; Deseq2, p=0.1): −0.269% | relative abundance variation vs Control, Chrysosporium ([2]; Deseq2, p=0.1): +2.918% | relative abundance variation vs Control, Cladosporium ([2]; Deseq2, p=0.1): −1.949% | relative abundance variation vs Control, Conostachys ([2]; Deseq2, p=0.1): +0.132% | relative abundance variation vs Control, Eleutherascus ([2]; Deseq2, p=0.1): +0.108% | relative abundance variation vs Control, Endoconidiophora ([2]; Deseq2, p=0.1): +2.581% | relative abundance variation vs Control, Fusarium ([2]; Deseq2, p=0.1): −10.274% | relative abundance variation vs Control, Humicola ([2]; Deseq2, p=0.1): −0.112% | relative abundance variation vs Control, Lectera ([2]; Deseq2, p=0.1): +1.617% | relative abundance variation vs Control, Monocillium ([2]; Deseq2, p=0.1): +0.070% | relative abundance variation vs Control, Mortierella ([2]; Deseq2, p=0.1): −0.412% | relative abundance variation vs Control, Mycosphaerella ([2]; Deseq2, p=0.1): −0.541% | relative abundance variation vs Control, Oidiodendron ([2]; Deseq2, p=0.1): +0.054% | relative abundance variation vs Control, Paraphoma ([2]; Deseq2, p=0.1): −0.023% | relative abundance variation vs Control, Phialemonium ([2]; Deseq2, p=0.1): −0.044% | relative abundance variation vs Control, Pseudaleuria ([2]; Deseq2, p=0.1): +1.181% | relative abundance variation vs Control, Pseudogymnoascus ([2]; Deseq2, p=0.1): +0.550% | relative abundance variation vs Control, Saitozyma ([2]; Deseq2, p=0.1): −0.038% | relative abundance variation vs Control, Schwanniomyces ([2]; Deseq2, p=0.1): −0.005% | relative abundance variation vs Control, Sebacina ([2]; Deseq2, p=0.1): −0.027% | relative abundance variation vs Control, Solicoccozyma ([2]; Deseq2, p=0.1): +0.082% | relative abundance variation vs Control, Tetracladium ([2]; Deseq2, p=0.1): +0.088% | relative abundance variation vs Control, Verticillium ([2]; Deseq2, p=0.1): +0.156% | effect on soil microbiome diversity (fungal taxa, FIG. 1) ([2]; apart from inhibiting Fusarium): preserves soil microbiome diversity | relative abundance of the plant-pathogen Fusarium (in words) ([2]; soil of tomato plants in presence of RKN infestation, medium-long term): substantially reduced | response vs control in vivo at 0.15 mg/seed ([3]; Glycine max, soybean variety Toliman, seed treatment 0.15 mg ai/seed, mycorrhizal inoculant Blend A, relative to control, read-out: [%] arbuscular mycorrhizae fungi colonization vs. control.): 115% | level of mycorrhizal colonization in soybean roots (in words) ([3]; compared to control): higher colonization

Reference: patent US20260191196A1, “COMPOSITIONS AND METHODS FOR IMPROVING SOIL MICROBIAL POPULATIONS” (SYNGENTA CROP PROTECTION AG, priority 2022, published 2026)
